Assay results published in patent publication US7976241B2, “Soil remediation method and composition” (priority 2006, dated 2011).

Assays:
[1] = Chlorinated DNAPL dissolution in control sample without cosolvent-surfactant; type: physicochemical; details: in presence of DNAPL, no Citrus Burst-3, 50 g/L NaCl, 25° C., 48 hours
From the text: A chlorinated solvent DNAPL was obtained from a site consisting of chlorinated solvents and chlorinated semi-volatile compounds. Composition of the chlorinated solvent DNAPL is presented based on determinations using USEPA Methods 8260 and 8270. An aliquot of the DNAPL was mixed with a suitable quantity of deionized water to determine the equilibrium solubility of the individual compounds in the presence of the DNAPL.
The data collected under the experimentation conditions presented in Table 2 were obtained at 25° C. with 60 rpm shaker table mixing for 48 hours. After the shaker was shut off, the samples sat quietly for 5 minutes before the supernatant was analyzed. DNAPLmax represents the maximum concentration of DNAPL that may dissolve, given the mass of DNAPL and the volume of water.
Carbon tetrachloride and tetrachloroethylene comprised more than 87 percent of the DNAPL. Being a saturated compound, carbon tetrachloride is generally a pervasive and difficult to degrade compound once introduced to the subsurface. […] After 48 hours of slowly mixing the DNAPL and water mixtures, the samples were allowed to sit for 5 minutes and then samples of the solubilized fraction of the mixture were collected and analyzed for VOCs using USEPA Method 8260. Samples from experiment number 1, 3, 5, 7 and 8 (control) were analyzed. […]

[2] = cited from earlier work

SMILES | Observed Solubility in Control Sample [1] | Pure Compound Aqueous Solubility [2]
ClC(Cl)(Cl)Cl [Carbon Tetrachloride (CTC), Carbon Tetrachloride] | 100 µg/mL | 129 µg/mL
Clc1c(Cl)c(Cl)c2c(Cl)c(Cl)c(Cl)c(Cl)c2c1Cl [Octachloronaphthalene (OCN), Octachloronaphthalene] | – | insoluble
